Measured values reported in patent US20150065440A1 (Progen Pharmaceuticals Limited, priority 2007, published 2015).
Like-named read-outs stand apart in the source and are kept apart here.

Legend:
VEGF = target: T1, VEGF (Homo sapiens, UniProt P15692); assay: Growth factor binding assay (SPR solution affinity), VEGF; conditions: HBS-EP buffer, 25° C.
T1 sequence (P15692 207-395): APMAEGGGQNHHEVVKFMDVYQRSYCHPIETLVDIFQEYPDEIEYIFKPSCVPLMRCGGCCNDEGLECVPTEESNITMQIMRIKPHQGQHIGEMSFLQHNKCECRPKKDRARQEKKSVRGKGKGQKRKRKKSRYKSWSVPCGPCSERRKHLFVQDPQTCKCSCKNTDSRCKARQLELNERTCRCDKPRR
Method in brief: (§1)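 Kd measured by SPR solution affinity: fixed growth factor with varying ligand competing for heparin-coated sensorchip, 25 °C. Buffer HBS-EP pH 7.4 (150 mM NaCl) for FGF-1 and VEGF; FGF-2 with 0.3 M NaCl. Duplicate values averaged.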

[1] = type: in vivo, Sprague-Dawley rats
Description: Adult male Sprague-Dawley (SD) rats (approx 300 g) were used for the experiment. Femoral artery cannulae was implanted and exteriorised following isoflurane anaesthesia. Jugular vein artery cannulae was implanted and exteriorized. […]. Blood samples (˜325 μL) were collected into sample tubes containing the anticoagulant sodium citrate from femoral artery catheter pre-dose and at 5, 20 minutes and 2, 5, 8, 12, 24, and 48 hours post-dose, and kept at reduced temperature (approx 4° C.) until centrifuged. Blood samples were centrifuged, plasma separated and 50 μL aliquot of the plasma transferred to a scintillation vial for counting. At the end of the experimental period animals were euthanased via a lethal overdose of pentobarbital. The level of radioactivity in the plasma was measured following mixing of samples with Packard Ultima Gold liquid scintillation counting cocktail. Counting was conducted on a Beckman liquid scintillation counter (LS6500) or Packard TriCarb liquid scintillation counter for 10 minutes per sample. Results (DPM, calculated from an in-built quench curve in the counter) were corrected for background prior to any calculations. The pharmacokinetic parameters were calculated using PK Solutions 2.0 software (Summit Research Services, Ohio, U.S.A.) and are summarised in Table 11 below.

[2] = tested on: normal pooled human plasma; assay: Anticoagulant activity, Heptest; conditions: 0.1 mg/mL in normal pooled human plasma
[3] = tested on: pooled normal human plasma; assay: Anticoagulant activity, APTT; conditions: 0.1 mg/mL in normal pooled human plasma
Description: APTT measurements were performed on a STAGO STA-Compact Coagulation Analyser using standard protocols according to the manufacturer's instructions. Unfractionated heparin (UFH) was used as a control.

FGF-2 = FGF-2 (Homo sapiens, UniProt P09038); assay: Growth factor binding assay (SPR solution affinity), FGF-2; conditions: SPR, HBS-EP buffer containing 0.3 M NaCl, 25° C.; read-out: Kd FGF-2
Method in brief: as §1

FGF-1 = FGF-1 (Homo sapiens, UniProt P05230); assay: Growth factor binding assay (SPR solution affinity), FGF-1; conditions: SPR, HBS-EP buffer, 25° C.; read-out: Kd FGF-1
[4] = tested on: HUVEC proliferation induced by FGF-1; assay: Growth factor induced endothelial cell proliferation assay, FGF-1; type: cell-based, human; conditions: 72 h; read-out: FGF-1 (IC50) inhibition of HUVEC proliferation
Excerpt: (§2) HUVEC cells were maintained and subcultured according to standard cell culture protocols essentially as described by Lonza. Briefly, cells were maintained in Lonza endothelial growth media (EGM) with recommended supplements and growth factors (VEGF, FGF2, EFG, IGF, hydrocortisone, fetal bovine serum (FBS), ascorbic acid, heparin and gentamicin). Cells were subcultured when they reached 70-80% confluence by trypsinisation and reseeding in fresh growth medium in new culture vessels at 2500 to 5000 cells/cm^2 of vessel surface area. Cell counts were performed using a haemocytometer and viable cells were visualized with trypan blue.
(§3) Medium for the proliferation studies was prepared using EGM with 2% FBS and gentamicin only. In a later study, complete EGM was used for the VEGF groups in an attempt to enhance the proliferative index of VEGF-stimulated groups. For the tube formation assay, complete medium was used with only heparin omitted. Compounds under investigation were weighed out from powder stocks and diluted in PBS to 10 mM stock solutions and stored at −80° C. For experiments, compounds were subsequently diluted in EBM-2 medium (supplemented with 2% FBS and gentamicin) to various working concentration as required.
(§4) In the first of a series of experiments, the assay was further optimized by examining the cell density and growth factor concentration required to induce maximal proliferation by growth factors. Briefly, 100 μL of cells was added to each well at concentrations between 1-3×10^3 per well. Growth factors and test compounds were then added in 50 μL volumes at specified concentrations to obtain a final volume of 200 μL. Following incubation for 70 h, 20 μL of the CellTitre 96® Aqueous One Solution Cell Proliferation Assay (Promega) was added for 2 h prior to reading the absorbance at 490 nm to obtain OD values.

[5] = tested on: HUVEC proliferation induced by FGF-2; assay: Growth factor induced endothelial cell proliferation assay, FGF-2; type: cell-based, human; conditions: 72 h; read-out: FGF-2 (IC50) inhibition of HUVEC proliferation
Excerpt: as §2, §3, §4

rat aortic tissue = assay: Ex vivo angiogenic sprout assay (rat aortic angiogenesis assay); type: cell-based, Sprague Dawley rats
Description: Explants from rat aortas were prepared by a modification of protocols previously described^42-54. In this model, the rat aortic endothelium exposed to a three dimensional matrix of ECM-derived proteins (Matrigel™), switches to a microvascular phenotype, generating branching networks of microvessels.
Briefly, thoracic aortas were excised from 2- to 4-month old Sprague Dawley rats and trimmed of remaining fat and connective tissue. Great care was taken at every stage to reduce physical damage of the aorta. Tissue was transferred to complete EBM-2 media (Cambrex) containing 2% FCS and all Singlequots™ (Cambrex) reagents except for heparin. Meanwhile, Matrigel™ (BD Biosciences) was allowed to cool on ice and once in a liquid form, 180 μL was pipetted into 48-well tissue culture plates (Nunc). The plates were incubated at 37° C. for 30 min to allow Matrigel™ to solidify.
Aortas were prepared by cutting 1 mm ring sections and then being bisected. Aortic segments were then carefully placed on top on the Matrigel™ in the centre of each well and once orientated as required, 60 μL of extra Matrigel™ was placed on top and the plate was returned to the incubator for a further 20 min. Each well was then supplemented with 1.0 mL media in the absence (control) or presence of test compounds usually at two concentrations within the range of 1-50 μM, depending on the particular compound/experiment. Cultures were replenished as appropriate every 48 h and scoring of microvessels was carried out at various timepoints up to 8-10 days. The extent of microvessel sprouting was determined by employing a scoring system from 0-5, where 0=no microvessels to 5=diffuse angiogenesis as previously described^45. Sprouting vessels were photographed using the 4× objective with an Olympus C-7070 camera and an adaptor for the eyepiece.
In some instances, to determine the potential toxicity of compounds in this assay, the viability of the tissue was assessed by withdrawing the compound/media from the culture on day 6 or 7 and adding complete media with VEGF (typically 10 ng/mL) for up to an additional 7 days. In the absence of toxicity, the viable tissue should sprout microvessels in response to the exogenous growth factor.
The inhibitory effect of compounds of the present invention on angiogenesis was assayed using the angiogenic sprout/microvessel formation (rat aortic) assay described above. Embedding of the rat aortic tissue in Matrigel™ in the absence of any inhibitor (control) yielded extensive angiogenic sprouting (as a score of 5 indicates diffuse angiogenesis) as illustrated by FIG. 1.

[6] = tested on: HUVEC proliferation induced by VEGF; assay: Growth factor induced endothelial cell proliferation assay, VEGF; type: cell-based, human; conditions: 72 h; read-out: VEGF (IC50) inhibition of HUVEC proliferation
Excerpt: as §2, §3, §4

HUVECs = assay: Matrigel microtubule formation assay; type: cell-based, human; conditions: 10 μM, relative to controls
Description: as §3
The tube formation assay was performed essentially as described by Malinda et al., with modifications.^41 HUVECs in the fourth or fifth passage at 70-80% confluence were harvested and resuspended in Lonza endothelial growth medium (EGM2) containing all supplements as directed by manufacturer, except heparin, at a cell density of 4×10^5 cells per mL. For each set of triplicate wells, 200 μL of cells (4×10^5/mL) were treated with an equal volume of compound to obtain final concentrations of 10, 50 or 100 μM (thus ensuring 1×300 μL are available for each condition). A 100 μL aliquot of cells was then plated onto 96-well plates pre-coated with growth factor reduced Matrigel™ (50 μL for 30 min followed by a further 30 μL for 1 h) and incubated for 18-22 h. Tube formation was examined by phase-contrast microscopy and images were collected using an Olympus C5050 digital camera. Tube formation inhibition was quantitated manually from images by recording the total number of nodes connecting 3 or more tubules. Untreated HUVECs were used as a control for normal cell growth and tube formation in Matrigel.

[7] = target: T2, recombinant human heparanase (Homo sapiens, UniProt Q9Y251); assay: Heparanase inhibition assay (fondaparinux cleavage, WST-1); conditions: read-out: Ki Heparanase; IC50 converted into Ki; fondaparinux 100 μM, pH 5.0
T2 sequence (Q9Y251 158-543 limits assumed): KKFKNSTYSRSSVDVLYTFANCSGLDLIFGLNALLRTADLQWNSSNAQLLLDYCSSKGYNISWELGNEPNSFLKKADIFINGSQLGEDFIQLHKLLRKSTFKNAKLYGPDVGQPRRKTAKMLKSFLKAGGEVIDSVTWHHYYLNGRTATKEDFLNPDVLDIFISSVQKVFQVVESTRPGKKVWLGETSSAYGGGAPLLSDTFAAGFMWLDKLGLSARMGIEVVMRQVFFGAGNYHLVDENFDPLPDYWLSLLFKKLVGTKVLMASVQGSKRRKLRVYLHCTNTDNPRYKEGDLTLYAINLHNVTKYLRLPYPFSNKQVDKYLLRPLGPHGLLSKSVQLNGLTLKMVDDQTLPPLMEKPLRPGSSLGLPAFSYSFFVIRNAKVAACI
T2 sequence (Q9Y251 36-109 limits assumed): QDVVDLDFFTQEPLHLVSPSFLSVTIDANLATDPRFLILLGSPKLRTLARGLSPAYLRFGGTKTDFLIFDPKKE
Description: In the presence of an inhibitor the catalytic activity of heparanase is reduced, and the amount of disaccharide produced and the optical density of the solution are both decreased. The percent inhibition and IC50 of the inhibitor are determined from measurement of the optical density (OD) over a range of inhibitor concentrations.
Assays were carried out in 40 mM sodium acetate buffer, pH 5.0, as follows. […] A blue colour was developed by incubation of the plates at 60° C. for 60 min. […] The IC50 value for each compound was evaluated and converted into a Ki (inhibition constant) using the expression

FGF-2, sequence (P09038 143-288, species assumed): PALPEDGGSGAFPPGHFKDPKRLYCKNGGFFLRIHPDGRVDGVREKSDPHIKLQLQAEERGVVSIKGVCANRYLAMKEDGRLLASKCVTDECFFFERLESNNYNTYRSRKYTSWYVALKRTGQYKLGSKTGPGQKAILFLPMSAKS
FGF-1, sequence (P05230 whole entry, species assumed): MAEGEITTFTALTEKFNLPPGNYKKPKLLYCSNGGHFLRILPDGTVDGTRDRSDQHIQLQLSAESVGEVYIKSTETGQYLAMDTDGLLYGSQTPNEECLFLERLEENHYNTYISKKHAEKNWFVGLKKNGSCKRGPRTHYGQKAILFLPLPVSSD

Compound	Kd (VEGF) [nM]	Half-life (iv) ([1]; intra venous, Sprague-Dawley rats, radiolabelled compound in plasma) [h]	Half-life (sc) ([1]; subcutaneous, Sprague-Dawley rats, radiolabelled compound in plasma) [h]	Heptest [2] [s]	APTT [3] [s]	Kd (FGF-2) [nM]	Half-life (iv) ([1]; rat, in vivo, iv) [h]	Half-life (sc) ([1]; rat, in vivo, sc) [h]	Kd (FGF-1) [nM]	IC50 [4] [nM]	IC50 [5] [nM]	% Inhibition of Angiogenesis (10 μM) (rat aortic tissue; 10 μM) [%]	IC50 [6] [nM]	Microtubule Formation % inhibition at 10 μM (HUVECs) [%]	inhibition at 10 µM (rat aortic tissue; Rattus norvegicus) [%]	Ki [7] [nM]	inhibition at 10 µM (HUVECs; Homo sapiens, HUVEC, read-out: Microtubule Formation % inhibition at 10 μM) [%]
CC(C)CCCC(C)C1CCC2C3CCC4CC(OC5OC(COS(=O)(=O)O)C(OC6OC(COS(=O)(=O)O)C(OC7OC(COS(=O)(=O)O)C(OC8OC(COS(=O)(=O)O)C(OS(=O)(=O)O)C(OS(=O)(=O)O)C8OS(=O)(=O)O)C(OS(=O)(=O)O)C7OS(=O)(=O)O)C(OS(=O)(=O)O)C6OS(=O)(=O)O)C(OS(=O)(=O)O)C5OS(=O)(=O)O)CCC4(C)C3CCC12C [Compound 65, 3β-Cholestanyl 2,3,4,6-tetra-O-sodium sulfonato-α-D-glucopyranosyl-(1→4)-2,3,6-tri-O-sodium sulfonato-α-D-glucopyranosyl-(1→4)-2,3,6-tri-O-sodium sulfonato-α-D-glucopyranosyl-(1→4)-2,3,6-tri-O-sodium sulfonato-β-D-glucopyranoside]	28.9 ± 2.3	17.3	21.3	28.6	71.9	390 ± 80	–	–	–	–	–	–	–	–	–	–	–
PI-88 [reference compound]	–	–	–	–	–	–	1.1	1.2	–	–	–	–	–	–	–	–	–
CC(C)CCC[C@@H](C)[C@H]1CC[C@H]2[C@@H]3CCC4CC(OCCCNC(=S)N[C@@H]5O[C@H](COS(=O)(=O)[O-])[C@@H](O[C@H]6O[C@H](COS(=O)(=O)[O-])[C@@H](O[C@H]7O[C@H](COS(=O)(=O)[O-])[C@@H](OS(=O)(=O)[O-])[C@H](OS(=O)(=O)[O-])[C@H]7OS(=O)(=O)[O-])[C@H](OS(=O)(=O)[O-])[C@H]6OS(=O)(=O)[O-])[C@H](OS(=O)(=O)[O-])[C@H]5OS(=O)(=O)[O-])CC[C@]4(C)[C@H]3CC[C@]12C.[Na+].[Na+].[Na+].[Na+].[Na+].[Na+].[Na+].[Na+].[Na+].[Na+] (stereo partly drawn) [Compound 139, 1-[(Cholestan-3-yloxy)propyl]-3-[2,3,4,6-tetra-O-sulfo-α-D-glucopyranosyl-(1→4)-2,3,6-tri-O-sulfo-α-D-glucopyranosyl-(1→4)-2,3,6-tri-O-sulfo-β-D-glucopyranoside]thiourea, decasodium salt]	379 ± 13	–	–	–	–	880 ± 110	–	–	72 ± 12	2160	1500	92	2310	36	–	–	–
CCCCCCCCCCCCCCCCCC(=O)NCCCO[C@@H]1O[C@H](COS(=O)(=O)[O-])[C@@H](O[C@H]2O[C@H](COS(=O)(=O)[O-])[C@@H](O[C@H]3O[C@H](COS(=O)(=O)[O-])[C@@H](OS(=O)(=O)[O-])[C@H](OS(=O)(=O)[O-])[C@H]3OS(=O)(=O)[O-])[C@H](OS(=O)(=O)[O-])[C@H]2OS(=O)(=O)[O-])[C@H](OS(=O)(=O)[O-])[C@H]1OS(=O)(=O)[O-].[Na+].[Na+].[Na+].[Na+].[Na+].[Na+].[Na+].[Na+].[Na+].[Na+] [Compound 123, 3-Stearamidopropyl 2,3,4,6-tetra-O-sulfo-α-D-glucopyranosyl-(1→4)-2,3,6-tri-O-sulfo-α-D-glucopyranosyl-(1→4)-2,3,6-tri-O-sulfo-β-D-glucopyranoside, decasodium salt]	380 ± 110	–	–	24.9	51.1	530 ± 50	–	–	32.2 ± 2.3	–	–	–	–	–	23	11.3 ± 0.4	33
